US20130259935A1, “PHARMACEUTICAL COMPOSITIONS COMPRISING GLIMEPIRIDE AND POLYETHYLENE GLYCOL CASTOR OIL” (LEK PHARMACEUTICALS D.D., priority 2010, published 2013)
Converted amounts (≈) assume the structure as drawn.

Experiment: Solubility of glimepiride, pH-dependent
Format: physicochemical
Conditions: for solubility: phosphate buffer, thermodynamic from solid
Method: Glimepiride has very low and pH-dependent solubility. […] In media with pH around 7 the solubility of glimepiride is 0.001 mg/mL. At a pH 8, the solubility of glimepiride only slightly increases to 0.03 mg/mL. […] Being insoluble according to the present invention means that the solubility in water is lower than 10 mg/mL. […] Solubility as meant herein is measured using USP apparatus 2 with agitation at 75 RPM. The dissolution medium is phosphate buffer maintained at 37° C. Dissolution as meant herein is measured using HPLC.

solubility (37 °C, pH 8, aqueous buffer): 0.03 mg/mL (≈ 61.1 µM)
solubility (aqueous buffer, acidic medium, 37° C.): < 0.001 mg/mL
solubility in water (in words) (water, insoluble means lower than 10 mg/mL): insoluble in water
Compound: CCC1=C(C)CN(C(=O)NCCc2ccc(S(=O)(=O)NC(=O)N[C@H]3CC[C@H](C)CC3)cc2)C1=O [glimepiride, Glimepiride]
